Results as given in patent publication US12590099B2, “Inhibitors of histone deacetylase useful for the treatment or prevention of HIV infection” (Merck Sharp & Dohme LLC, priority 2018, dated 2026).
Read-outs that look alike come from different tables or passages of the source.

Experiments:
KARN cells (Jurkat 2C4) = test: cells; type: cell-based
Method: KARN cells (Jurkat 2C4) were licensed from the laboratory of Dr. John Karn, Case Western Reserve University, School of Medicine. […] An atmosphere of 5% CO2 and 90% humidity was used for all culture work.
Day 1: After the 3-4 day growth period, the cells were transferred from the T175 flask to a 50 ml conical tube and gently pelleted at 1000 rpm for 5 minutes. […] These flasks were returned to the incubator.
Day 2: Cell Preparation: The next day, the cells were transferred from each T175 flask to an individual 50 ml conical tube and gently pelleted at 1000 rpm for 5 minutes. The cells were gently resuspended in assay media (30 ml) and pelleted again. […] The cells were counted using the ViCell (Beckman Coulter) and diluted as necessary. […] The plates were covered and returned to the incubator prior to compound addition.
The reference compounds, DMSO and SAHA were then added to the compound plate. […] The final high concentration for SAHA and the test compounds in the assays was 40 μM. The final DMSO concentration in all wells was 0.4%. The minimal induction reference compound used was DMSO and the maximal induction reference compound used was SAHA (2 μM final concentration in the assay).
Day 3: The luciferase detection reagent was prepared by transferring the contents of one bottle of Steady-Glo buffer to one bottle of Steady-Glo aubstrate (Steady-Glo Luciferase Assay System, Promega, catalog number E2520), followed by gently mixing until the substrate was thoroughly dissolved and the solution was equilibrated to room temperature. […] The Steady-Glo Reagent was added to the plates (30 μl/well), which were then covered with a black lid and incubated for 10 minutes at room temperature. The plates were then read for luminescence on an Envision (Perkin Elmer) using the ultrasensitive mode (US LUM), […] and 384-well aperture. Luminescence counts in the DMSO reference wells were considered as 0% induction, while those in the 2 μM SAHA reference wells were considered as 100% induction. Dose response curves were plotted as test compound concentration (X-axis) vs. percent activation (Y-axis) using a 4-parameter fit based on the Levenberg-Marquardt algorithm.

HDAC6 = target: T1, HDAC6 (Homo sapiens, UniProt Q9UBN7); test: Human HDAC enzyme inhibitor Fluor-de-Lys assay, HDAC6; type: biochemical
T1 sequence (Q9UBN7 1-1215): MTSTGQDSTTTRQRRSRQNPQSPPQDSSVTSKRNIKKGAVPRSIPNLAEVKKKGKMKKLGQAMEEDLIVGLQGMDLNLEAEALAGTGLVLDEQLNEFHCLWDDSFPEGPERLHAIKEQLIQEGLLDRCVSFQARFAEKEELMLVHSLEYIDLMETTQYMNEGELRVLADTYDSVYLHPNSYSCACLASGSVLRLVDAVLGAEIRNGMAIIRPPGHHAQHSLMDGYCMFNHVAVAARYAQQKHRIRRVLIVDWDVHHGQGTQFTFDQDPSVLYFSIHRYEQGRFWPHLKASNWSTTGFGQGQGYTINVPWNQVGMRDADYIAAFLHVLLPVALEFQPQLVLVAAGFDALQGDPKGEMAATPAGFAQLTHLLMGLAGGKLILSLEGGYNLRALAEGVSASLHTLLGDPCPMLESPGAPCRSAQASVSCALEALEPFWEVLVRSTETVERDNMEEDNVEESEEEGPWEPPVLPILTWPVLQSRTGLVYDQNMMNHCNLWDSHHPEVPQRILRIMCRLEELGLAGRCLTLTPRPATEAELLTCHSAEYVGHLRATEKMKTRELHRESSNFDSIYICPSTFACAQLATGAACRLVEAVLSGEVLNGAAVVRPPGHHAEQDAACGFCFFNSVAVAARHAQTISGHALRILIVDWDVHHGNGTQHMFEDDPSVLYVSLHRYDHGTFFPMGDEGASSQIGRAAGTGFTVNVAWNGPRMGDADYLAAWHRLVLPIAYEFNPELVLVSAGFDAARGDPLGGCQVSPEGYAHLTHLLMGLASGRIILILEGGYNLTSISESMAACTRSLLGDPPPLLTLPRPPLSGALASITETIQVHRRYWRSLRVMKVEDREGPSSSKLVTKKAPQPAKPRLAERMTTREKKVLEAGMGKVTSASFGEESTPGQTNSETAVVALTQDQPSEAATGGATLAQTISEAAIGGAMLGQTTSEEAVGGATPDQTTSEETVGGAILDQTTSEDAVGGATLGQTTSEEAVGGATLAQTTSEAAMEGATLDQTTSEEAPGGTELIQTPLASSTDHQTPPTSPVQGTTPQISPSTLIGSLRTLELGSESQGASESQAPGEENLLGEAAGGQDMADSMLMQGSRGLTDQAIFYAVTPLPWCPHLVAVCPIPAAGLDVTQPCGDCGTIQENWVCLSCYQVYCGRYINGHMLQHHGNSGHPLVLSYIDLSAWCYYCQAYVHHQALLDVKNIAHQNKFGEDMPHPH
Method: (§1) Human HDAC Enzyme Inhibitor Fluor-De-Lys Assay
(§2) Recombinant human HDAC8 (BML-SE145-0100) and HDAC10 (BML-SE559-0050) enzymes, HDAC substrates BML-KI104 and BML-KI178, and HDAC developer solutions BML-KI105 and BML-KI176 were purchased from Enzo Life Sciences. […] HDAC inhibitor suberoylanilide hydroxamic acid (SAHA) was obtained from Indofine and trichostatin A (TSA) was obtained from Sigma-Aldrich.
(§3) The histone deacetylase activities of HDAC1, HDAC2, HDAC3, HDAC6, and HDAC8 were measured in modified FLUOR DE LYS assays in 384-well format. In this assay, HDAC enzymes are initially incubated with an ε-acetyl (or -trifluoroacetyl)-L-lysine-containing substrate with a C-terminal amide having aminomethylcoumarin as the amine component. HDACs cleave the ε-acetyl group, rendering the resulting product susceptible to AMC cleavage by trypsin. The released AMC is then detected by its fluorescence.
(§4) The HDAC3/SMRT assay employed buffer B, consisting of 20 mM HEPES, pH 8.0, 1 mM MgCl2, 50 mM NaCl, 2.7 mM KCl, 0.05% BSA, 0.005% Tween 20, and 10 μM IP4. […] The HDAC8 assay employed buffer D, consisting of 20 mM HEPES, pH 8.0, 1 mM MgCl2, 100 mM NaCl, 20 mM KCl, 0.10% n-octyl-β-D-glucoside (Anatrace) and 0.05% BSA. All steps were performed at room temperature (23° C.). The assay was performed by pre-incubating serial dilutions of test compounds with the target HDAC prior to initiation with substrate. Each compound was titrated in a 10-point dose response, using a 1:3 fold dilution scheme, with 0.15 ul of solution added by ECH0555 to the plate, followed by the addition of 20 μl of the appropriate HDAC isoform diluted in appropriate assay buffer. […] Final conditions used for each assay were: 1. HDAC 1, 0.3 nM total enzyme, 20 μM substrate BML-KI104; 2. […] HDAC 3/SMRT, 0.3 nM total enzyme, 20 μM substrate BML-KI104; 4. […] The reactions were stopped and developed by addition of 30 ul of HDAC developer solution containing a saturating level of HDAC inhibitor as follows: 1.

Recombinant human HDAC8 = target: T2, Recombinant human HDAC8 (Homo sapiens, UniProt Q9BY41); test: Human HDAC enzyme inhibitor Fluor-de-Lys assay, HDAC8; type: biochemical
T2 construct: purchased Enzo Life Sciences BML-SE145-0100
T2 sequence (Q9BY41 1-377): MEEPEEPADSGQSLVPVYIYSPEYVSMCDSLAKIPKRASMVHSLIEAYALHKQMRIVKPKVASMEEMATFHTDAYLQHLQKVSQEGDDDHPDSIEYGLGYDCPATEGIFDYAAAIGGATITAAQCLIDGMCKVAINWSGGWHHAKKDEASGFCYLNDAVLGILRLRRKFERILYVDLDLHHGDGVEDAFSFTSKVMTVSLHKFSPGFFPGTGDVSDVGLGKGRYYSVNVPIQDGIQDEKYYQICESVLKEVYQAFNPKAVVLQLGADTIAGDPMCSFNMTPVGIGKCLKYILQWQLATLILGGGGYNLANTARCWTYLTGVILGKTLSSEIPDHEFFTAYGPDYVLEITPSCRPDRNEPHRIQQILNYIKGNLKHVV
Method: as §1, §2, §3, §4

[1] = Homo sapiens, Jurkat, read-out: Karn EC50 (nM) 0.1% NHS, 0.1% normal human serum, luciferase induction, 100% = 2 μM SAHA
[2] = Homo sapiens, Jurkat, read-out: Karn EC50 (nM) 5% NHS, 5% normal human serum, luciferase induction, 100% = 2 μM SAHA
[3] = recombinant human HDAC8, Fluor-de-Lys assay
[4] = Homo sapiens, Jurkat, read-out: Karn EC50 (nM) 0.1% NHS, 0.1% normal human serum
[5] = Homo sapiens, Jurkat, read-out: Karn EC50 (nM) 5% NHS, 5% normal human serum
[6] = read-out: Karn EC50 (nM) 0.1% NHS, 0.1% normal human serum, luciferase induction, 100% = 2 μM SAHA
[7] = read-out: Karn EC50 (nM) 5% NHS, 5% normal human serum, luciferase induction, 100% = 2 μM SAHA

SMILES	EC50 (KARN cells (Jurkat 2C4); [1])	EC50 (KARN cells (Jurkat 2C4); [2])	IC50 (Recombinant human HDAC8; [3])	EC50 (KARN cells (Jurkat 2C4); [4])	EC50 (KARN cells (Jurkat 2C4); [5])	IC50 (HDAC6)	IC50 (Recombinant human HDAC8)	further results
CCC(=O)CCCCC[C@H](NC(=O)[C@@H]1CC12CCCN(C)C2)c1ncc(-c2cc3ccccc3nc2OC)[nH]1 (some centres unmarked) [Compound 285]	257 nM	1010 nM	9190 nM					IC50 (HDAC6; HDAC6, Fluor-de-Lys assay): 260 nM
CCC(=O)CCCCC[C@H](NC(=O)[C@H]1CC12CCN(CC)CC2)c1ncc(-c2ccc(OC)cc2OC)[nH]1 [Compound 183]				58 nM	93 nM	898 nM	10400 nM	
CCC(=O)CCCCC[C@H](NC(=O)[C@H]1CCC12CCN(CC)CC2)c1ncc(-c2cc3ccccc3nc2OC)[nH]1 [Compound 338]	44 nM	111 nM	2930 nM					IC50 (HDAC6; HDAC6, Fluor-de-Lys assay): 405 nM
CCC(=O)CCCCC[C@H](NC(=O)[C@H]1CC12CCN(CC)CC2)c1ncc(-c2cc3cccnc3cc2OC)[nH]1 [Compound 181]				52 nM	63 nM	144 nM	5250 nM	
CCC(=O)CCCCC[C@H](NC(=O)[C@H]1CC12CCN(C)CC2)c1ncc(-c2cc3ccc(-n4cccn4)cc3nc2OC)[nH]1 [Compound 176, (1S)—N-[(1S)-1-{5-[2-methoxy-7-(1H-pyrazol-1-yl)quinolin-3-yl]-1H-imidazol-2-yl}-7-oxononyl]-6-methyl-6-azaspiro[2.5]octane-1-carboxamide]				45 nM	76 nM	> 1500 nM	> 4500 nM	
CCC(=O)CCCCC[C@H](NC(=O)[C@H]1CC12CCN(CC)CC2)c1ncc(-c2ccc(F)cc2OC)[nH]1 [Compound 197]				369 nM	538 nM	3380 nM	7540 nM	
CCC(=O)CCCCC[C@H](NC(=O)[C@@H]1CC12CCOCC2)c1ncc(-c2cc3ccccc3nc2OC)[nH]1 [Compound 64]				647 nM	5040 nM	3580 nM	6350 nM	
CCC(=O)CCCCC[C@H](NC(=O)[C@@H]1CC12CCN(C)CC2)c1ncc(-c2cc3ccccc3nc2OC)[nH]1 (single isomer, unassigned) [Compound 320]	339 nM	1370 nM	14600 nM					IC50 (HDAC6; HDAC6, Fluor-de-Lys assay): 709 nM
CCC(=O)CCCCC[C@H](NC(=O)C1CCC2(CC1)CN(C)C2)c1ncc(-c2cc3ccccc3nc2OC)[nH]1 [Compound 316]			1680 nM					EC50 (KARN cells (Jurkat 2C4); [6]): 151 nM; EC50 (KARN cells (Jurkat 2C4); [7]): 660 nM; IC50 (HDAC6; HDAC6, Fluor-de-Lys assay): 387 nM
CCC(=O)CCCCC[C@H](NC(=O)[C@H]1C[C@]12CCN(C)C2)c1ncc(-c2cc3ccccc3nc2OC)[nH]1 [Compound 327]	73 nM	232 nM	3870 nM					
CCC(=O)CCCCC[C@H](NC(=O)[C@H]1CC12CCN(C)CC2)c1ncc(-c2cc3ccccc3nc2O)[nH]1 (single isomer, unassigned) [Compound 325]	154 nM	216 nM						
CCC(=O)CCCCC[C@H](NC(=O)[C@@H]1CC12CCN(C)CC2)c1ncc(-c2cc3ccccc3nc2O)[nH]1 (single isomer, unassigned) [Compound 324]	1170 nM	1210 nM						
CCC(=O)CCCCC[C@H](NC(=O)[C@H]1CC12CCN(C)CC2)c1ncc(-c2ccc3ncccc3c2)[nH]1 [Compound 282]								EC50 (KARN cells (Jurkat 2C4); [6]): 294 nM; EC50 (KARN cells (Jurkat 2C4); [7]): 247 nM
CCC(=O)CCCCC[C@H](NC(=O)[C@@H]1CC12CCN(C)CC2)c1ncc(-c2ccc3ncccc3c2)[nH]1 [Compound 281]	2140 nM	2170 nM						
